Results published in the NIST ThermoML archive (doi:10.1016/j.jct.2011.08.019).
Where “and” joins values, the source holds several entries; their conditions need not be identical. Identical values can stand only once. ± gives the expanded uncertainty stated by the source.

Assay: molar heat capacity at constant pressure
Settings: 101.33 kPa, Liquid, Small sample (50 mg) DSC

| Compound | molar heat capacity at constant pressure (343.15 K) | molar heat capacity at constant pressure (348.15 K) | molar heat capacity at constant pressure (353.15 K) | molar heat capacity at constant pressure (358.15 K) | molar heat capacity at constant pressure (363.15 K) | molar heat capacity at constant pressure (368.15 K) | molar heat capacity at constant pressure (373.15 K) | molar heat capacity at constant pressure (378.15 K) | molar heat capacity at constant pressure (383.15 K) | molar heat capacity at constant pressure (388.15 K) | molar heat capacity at constant pressure (393.15 K) | molar heat capacity at constant pressure (398.15 K) | molar heat capacity at constant pressure (403.15 K) | molar heat capacity at constant pressure (408.15 K) | molar heat capacity at constant pressure (413.15 K) | molar heat capacity at constant pressure (418.15 K) | molar heat capacity at constant pressure (423.15 K) | molar heat capacity at constant pressure (428.15 K) | molar heat capacity at constant pressure (433.15 K) | molar heat capacity at constant pressure (438.15 K) | other results |
| --- | --- | --- | --- | --- | --- | --- | --- | --- | --- | --- | --- | --- | --- | --- | --- | --- | --- | --- | --- | --- | --- |
| CCCCCCCCCCCCCC[P+](CCCCCC)(CCCCCC)CCCCCC.FC(F)(F)C(F)(F)[P-](F)(F)(F)(C(F)(F)C(F)(F)F)C(F)(F)C(F)(F)F | 1547.5 ± 160 J/K/mol [middle of 4 runs] | 1556.8 ± 160 J/K/mol [middle of 4 runs] | 1566.1 ± 160 J/K/mol and 1563.3 ± 160 J/K/mol | 1577.2 ± 160 J/K/mol and 1574.4 ± 160 J/K/mol | 1587.4 ± 160 J/K/mol and 1583.7 ± 160 J/K/mol and 1585.6 ± 160 J/K/mol | 1596.7 ± 160 J/K/mol [middle of 4 runs] | 1604.1 ± 160 J/K/mol [middle of 4 runs] | 1615.3 ± 160 J/K/mol [middle of 4 runs] | 1626.4 ± 160 J/K/mol [middle of 4 runs] | 1634.8 ± 170 J/K/mol | 1645 ± 170 J/K/mol [middle of 4 runs] | 1652.4 ± 170 J/K/mol [middle of 4 runs] | 1661.7 ± 170 J/K/mol [middle of 4 runs] | 1668.2 ± 170 J/K/mol and 1669.2 ± 170 J/K/mol | 1678.4 ± 170 J/K/mol and 1677.5 ± 170 J/K/mol | 1688.7 ± 170 J/K/mol and 1685.9 ± 170 J/K/mol and 1687.7 ± 170 J/K/mol | 1697 ± 170 J/K/mol [middle of 4 runs] | 1700.7 ± 170 J/K/mol [middle of 4 runs] | 1707.2 ± 170 J/K/mol and 1711 ± 170 J/K/mol | 1722.1 ± 170 J/K/mol [middle of 4 runs] | molar heat capacity at constant pressure (338.15 K): 1543.8 ± 160 J/K/mol [middle of 4 runs]; molar heat capacity at constant pressure (443.15 K): 1727.7 ± 170 J/K/mol [middle of 4 runs]; molar heat capacity at constant pressure (448.15 K): 1735.1 ± 180 J/K/mol [middle of 4 runs]; molar heat capacity at constant pressure (453.15 K): 1743.5 ± 180 J/K/mol [middle of 4 runs]; molar heat capacity at constant pressure (458.15 K): 1750 ± 180 J/K/mol and 1753.7 ± 180 J/K/mol and 1739.7 ± 180 J/K/mol; molar heat capacity at constant pressure (463.15 K): 1756.5 ± 180 J/K/mol [middle of 4 runs]; molar heat capacity at constant pressure (468.15 K): 1761.1 ± 180 J/K/mol [middle of 4 runs]; molar heat capacity at constant pressure (473.15 K): 1763.9 ± 180 J/K/mol [middle of 4 runs]; molar heat capacity at constant pressure (478.15 K): 1771.3 ± 180 J/K/mol [middle of 4 runs]; molar heat capacity at constant pressure (483.15 K): 1768.5 ± 180 J/K/mol and 1776 ± 180 J/K/mol and 1780.6 ± 180 J/K/mol; molar heat capacity at constant pressure (488.15 K): 1785.3 ± 180 J/K/mol [middle of 4 runs]; molar heat capacity at constant pressure (493.15 K): 1785.3 ± 180 J/K/mol [middle of 4 runs]; molar heat capacity at constant pressure (498.15 K): 1787.1 ± 180 J/K/mol [middle of 4 runs]; molar heat capacity at constant pressure (503.15 K): 1798.3 ± 180 J/K/mol [middle of 4 runs]; molar heat capacity at constant pressure (508.15 K): 1802 ± 180 J/K/mol [middle of 4 runs]; molar heat capacity at constant pressure (513.15 K): 1809.4 ± 180 J/K/mol and 1803.8 ± 180 J/K/mol and 1805.7 ± 180 J/K/mol |
| CCCCCCCCCCCCCC[P+](CCCCCC)(CCCCCC)CCCCCC.[Cl-] [trihexyl(tetradecyl)phosphonium chloride] | 838.7 ± 85 J/K/mol and 837.1 ± 84 J/K/mol and 837.6 ± 85 J/K/mol | 842.8 ± 85 J/K/mol [middle of 4 runs] | 850.6 ± 86 J/K/mol and 848.5 ± 86 J/K/mol and 849.1 ± 86 J/K/mol | 857.9 ± 87 J/K/mol and 855.3 ± 86 J/K/mol and 854.8 ± 86 J/K/mol | 863.6 ± 87 J/K/mol and 861.5 ± 87 J/K/mol and 860.5 ± 87 J/K/mol | 870.9 ± 88 J/K/mol and 868.3 ± 88 J/K/mol and 867.8 ± 88 J/K/mol | 876.6 ± 88 J/K/mol and 874.5 ± 88 J/K/mol and 874 ± 88 J/K/mol | 881.8 ± 89 J/K/mol [middle of 4 runs] | 889.6 ± 90 J/K/mol and 886.5 ± 90 J/K/mol and 888 ± 90 J/K/mol | 893.7 ± 90 J/K/mol [middle of 4 runs] | 901 ± 91 J/K/mol and 899.4 ± 91 J/K/mol and 898.4 ± 91 J/K/mol | 905.2 ± 91 J/K/mol [middle of 4 runs] | 910.3 ± 92 J/K/mol [middle of 4 runs] | 917.6 ± 93 J/K/mol and 915 ± 92 J/K/mol and 916.1 ± 92 J/K/mol | 922.8 ± 93 J/K/mol [middle of 4 runs] | 928 ± 94 J/K/mol [middle of 4 runs] | 933.2 ± 94 J/K/mol and 931.1 ± 94 J/K/mol and 932.7 ± 94 J/K/mol | 937.9 ± 95 J/K/mol [middle of 4 runs] | 944.1 ± 95 J/K/mol [middle of 4 runs] | 948.8 ± 96 J/K/mol [middle of 4 runs] | molar heat capacity at constant pressure (338.15 K): 835 ± 84 J/K/mol and 833.5 ± 84 J/K/mol and 834 ± 84 J/K/mol; molar heat capacity at constant pressure (443.15 K): 952.4 ± 96 J/K/mol and 953.4 ± 96 J/K/mol and 951.4 ± 96 J/K/mol; molar heat capacity at constant pressure (448.15 K): 957.1 ± 97 J/K/mol [middle of 4 runs]; molar heat capacity at constant pressure (453.15 K): 961.2 ± 97 J/K/mol [middle of 4 runs]; molar heat capacity at constant pressure (458.15 K): 965.4 ± 98 J/K/mol [middle of 4 runs]; molar heat capacity at constant pressure (463.15 K): 968 ± 98 J/K/mol [middle of 4 runs] |
| CCn1cc[n+](C)c1.O=S(=O)([N-]S(=O)(=O)C(F)(F)F)C(F)(F)F | 531 ± 54 J/K/mol and 533.4 ± 54 J/K/mol and 533.7 ± 54 J/K/mol | 531.8 ± 54 J/K/mol and 534.1 ± 54 J/K/mol and 534.9 ± 54 J/K/mol | 533 ± 54 J/K/mol and 536.1 ± 54 J/K/mol | 537.3 ± 54 J/K/mol and 537.7 ± 54 J/K/mol and 534.9 ± 54 J/K/mol | 536.1 ± 54 J/K/mol and 538.4 ± 54 J/K/mol and 539.2 ± 54 J/K/mol | 537.7 ± 54 J/K/mol and 539.6 ± 54 J/K/mol and 540.4 ± 55 J/K/mol | 538.8 ± 54 J/K/mol and 541.6 ± 55 J/K/mol and 542.4 ± 55 J/K/mol | 540.8 ± 55 J/K/mol and 542.7 ± 55 J/K/mol and 543.5 ± 55 J/K/mol | 541.6 ± 55 J/K/mol and 543.9 ± 55 J/K/mol | 542.7 ± 55 J/K/mol and 545.1 ± 55 J/K/mol and 545.5 ± 55 J/K/mol | 544.7 ± 55 J/K/mol and 546.7 ± 55 J/K/mol | 545.5 ± 55 J/K/mol and 547.4 ± 55 J/K/mol and 548.2 ± 55 J/K/mol | 547.4 ± 55 J/K/mol and 549.4 ± 56 J/K/mol | 548.6 ± 55 J/K/mol and 550.2 ± 56 J/K/mol and 549.8 ± 56 J/K/mol | 549.4 ± 56 J/K/mol and 552.1 ± 56 J/K/mol and 550.2 ± 56 J/K/mol | 550.6 ± 56 J/K/mol and 552.5 ± 56 J/K/mol and 551.7 ± 56 J/K/mol | 551.4 ± 56 J/K/mol and 552.9 ± 56 J/K/mol and 552.5 ± 56 J/K/mol | 552.1 ± 56 J/K/mol and 553.7 ± 56 J/K/mol and 552.9 ± 56 J/K/mol | 552.5 ± 56 J/K/mol and 554.9 ± 56 J/K/mol and 555.3 ± 56 J/K/mol | 554.1 ± 56 J/K/mol and 556.1 ± 56 J/K/mol and 555.7 ± 56 J/K/mol | molar heat capacity at constant pressure (443.15 K): 554.9 ± 56 J/K/mol and 556.4 ± 56 J/K/mol and 556.1 ± 56 J/K/mol; molar heat capacity at constant pressure (448.15 K): 555.7 ± 56 J/K/mol and 557.2 ± 56 J/K/mol; molar heat capacity at constant pressure (453.15 K): 556.4 ± 56 J/K/mol and 558.4 ± 56 J/K/mol and 556.8 ± 56 J/K/mol; molar heat capacity at constant pressure (458.15 K): 557.6 ± 56 J/K/mol and 558.4 ± 56 J/K/mol and 558 ± 56 J/K/mol; molar heat capacity at constant pressure (463.15 K): 557.6 ± 56 J/K/mol and 558.8 ± 56 J/K/mol |
